ChEMBL document CHEMBL4673331 (J Med Chem, 2020)
Converted amounts (≈) assume the structure as drawn. The source made the active and inactive calls. The calls are words filed in the database; no cut-off is given here.

Assays:
[1] = target: Baculoviral IAP repeat-containing protein 3/Mucosa-associated lymphoid tissue lymphoma translocation protein 1 (Homo sapiens, UniProt Q13489+Q9UDY8); assay: Allosteric inhibition of MALT1-cIAP2 (unknown origin) fusion protein expressed in HEK293 cells assessed as reduction in NF-KappaB activation by luciferase reporter gene assay; type: cell-based
Sequence of Baculoviral IAP repeat-containing protein 3/Mucosa-associated lymphoid tissue lymphoma translocation protein 1 (Q13489 whole entry, one chain of several, the tested form may be a part): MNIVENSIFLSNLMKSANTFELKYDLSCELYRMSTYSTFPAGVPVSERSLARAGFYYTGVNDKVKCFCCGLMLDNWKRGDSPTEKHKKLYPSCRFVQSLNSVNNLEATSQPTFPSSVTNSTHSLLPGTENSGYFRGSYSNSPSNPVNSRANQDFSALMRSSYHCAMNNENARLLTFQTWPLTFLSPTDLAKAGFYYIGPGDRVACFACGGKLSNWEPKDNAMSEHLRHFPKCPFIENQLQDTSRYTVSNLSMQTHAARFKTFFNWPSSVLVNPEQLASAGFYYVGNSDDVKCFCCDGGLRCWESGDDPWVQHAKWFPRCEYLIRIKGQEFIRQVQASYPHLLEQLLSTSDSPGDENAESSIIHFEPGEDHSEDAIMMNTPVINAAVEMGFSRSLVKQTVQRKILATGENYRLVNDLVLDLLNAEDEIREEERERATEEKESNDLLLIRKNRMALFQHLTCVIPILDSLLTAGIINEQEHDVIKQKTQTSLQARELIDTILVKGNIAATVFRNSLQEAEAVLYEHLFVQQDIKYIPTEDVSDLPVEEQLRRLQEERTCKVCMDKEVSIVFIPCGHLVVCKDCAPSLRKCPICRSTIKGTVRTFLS

[2] = Intrinsic clearance in rat liver microsomes; type: ADME, Microsome; conditions: read-out: CLH
[3] = target: T1, Mucosa-associated lymphoid tissue lymphoma translocation protein 1 (Homo sapiens, UniProt Q9UDY8); assay: Allosteric inhibition of MALT1-mediated T cell activation in human Jurkat cells assessed as decrease in PMA induced IL2 activation preincubated for 1 hr followed by addition of PMA measured after 5.5 hrs by luciferase reporter gene assay; type: cell-based
T1 sequence (Q9UDY8 whole entry): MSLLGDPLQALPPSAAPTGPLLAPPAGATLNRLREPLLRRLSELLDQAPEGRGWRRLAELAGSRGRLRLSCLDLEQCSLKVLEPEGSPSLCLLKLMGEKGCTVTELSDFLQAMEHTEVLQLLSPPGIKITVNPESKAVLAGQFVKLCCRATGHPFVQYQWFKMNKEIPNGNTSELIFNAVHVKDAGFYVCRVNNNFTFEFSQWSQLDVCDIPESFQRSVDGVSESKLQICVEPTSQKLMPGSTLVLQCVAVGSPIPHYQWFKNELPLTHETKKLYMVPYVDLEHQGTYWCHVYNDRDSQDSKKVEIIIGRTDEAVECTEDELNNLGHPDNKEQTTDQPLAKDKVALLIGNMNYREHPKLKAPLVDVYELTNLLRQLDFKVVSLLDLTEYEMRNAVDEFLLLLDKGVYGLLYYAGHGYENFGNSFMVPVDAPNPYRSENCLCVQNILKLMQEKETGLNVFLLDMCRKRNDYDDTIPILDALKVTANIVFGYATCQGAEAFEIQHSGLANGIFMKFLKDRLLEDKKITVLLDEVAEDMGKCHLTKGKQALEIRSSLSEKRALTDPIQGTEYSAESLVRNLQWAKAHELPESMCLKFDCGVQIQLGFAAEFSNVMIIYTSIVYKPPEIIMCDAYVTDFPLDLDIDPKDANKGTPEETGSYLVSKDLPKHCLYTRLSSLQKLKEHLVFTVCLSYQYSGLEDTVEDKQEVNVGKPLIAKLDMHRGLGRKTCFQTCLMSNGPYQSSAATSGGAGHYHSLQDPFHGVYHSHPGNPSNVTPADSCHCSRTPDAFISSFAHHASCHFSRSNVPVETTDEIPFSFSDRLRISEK

[4] = Inhibition of mixed lymphocyte reaction in human PBMC cells assessed as reduction in [3H]-thymidine incorporation measured after 5 days in presence of Il-7 by microbeta counting method; type: functional, cell-based
BMDM = assay: Cytotoxicity against mouse Bone marrow-derived macrophage cells assessed as reduction in cell viability by [3H]-thymidine incorporation assay; type: cell-based
[5] = Intrinsic clearance in mouse liver microsome; type: ADME; conditions: liver microsomes, read-out: CLH
BJAB = assay: Antiproliferative activity against human BJAB cells assessed as assessed as reduction in colony formation at 19.5 to 10000 nM incubated for 14 days by soft-agar assay; type: functional, cell-based; conditions: dose 19.5-10000 nM, time 14.0 day
[6] = Apparent permeability across apical to basolateral side in human Caco-2 cells; type: ADME, cell-based
[7] = target: T2, Mucosa-associated lymphoid tissue lymphoma translocation protein 1 (Homo sapiens) (UniProt Q9UDY8); assay: Allosteric inhibition of MALT1 protease activity in human OCI-LY3 cells assessed as accumulation of uncleaved substrate CYLD incubated for 24 hrs by Western blot analysis; type: cell-based; conditions: OCILY3, filed as negative allosteric modulator, dose 50-5000 nM
T2 sequence (whole entry): T1 sequence (Q9UDY8 whole entry)

[8] = target: T2, Mucosa-associated lymphoid tissue lymphoma translocation protein 1 (Homo sapiens); assay: Allosteric inhibition of MALT1 protease activity in human OCI-LY3 cells assessed as accumulation of uncleaved substrate […] incubated for 24 hrs by Western blot analysis; type: cell-based; conditions: OCILY3, filed as negative allosteric modulator, dose 50-5000 nM
[9] = target: T2, Mucosa-associated lymphoid tissue lymphoma translocation protein 1 (Homo sapiens); assay: Allosteric inhibition of MALT1 protease activity in human OCI-LY3 cells assessed as accumulation of uncleaved substrate RELB incubated for 24 hrs by Western blot analysis; type: cell-based; conditions: OCILY3, filed as negative allosteric modulator, dose 50-5000 nM
[10] = Clearance in Sprague-Dawley rat at 1 mg/kg, iv administered as cassette dosing; type: ADME, organism-based; conditions: in vivo
[11] = Half-life in Sprague-Dawley rat at 1 mg/kg, iv administered as cassette dosing; type: ADME, organism-based; conditions: in vivo
[12] = Dose normalized Cmax in Balb/c mouse at 3 mg/kg, po administered as cassette dosing; type: ADME, organism-based; conditions: in vivo
[13] = Dose normalized Cmax in Sprague-Dawley rat at 3 mg/kg, po administered as cassette dosing; type: ADME, organism-based; conditions: in vivo
[14] = Drug concentration in Balb/c mouse blood at 30 mg/kg, po BID administered at 12 hrs interval immunized post 1 hr first treatment measured after 12 hrs post second dose by LC-MS/MS analysis; type: ADME, organism-based; conditions: whole blood, read-out: Drug uptake
[15] = Drug concentration in Balb/c mouse blood at 100 mg/kg, po BID administered at 12 hrs interval immunized post 1 hr first treatment measured after 12 hrs post second dose by LC-MS/MS analysis; type: ADME, organism-based; conditions: whole blood, read-out: Drug uptake
[16] = Toxicity in Balb/c mouse assessed as behavioral changes at 10 to 100 mg/kg, po BID administered at 12 hrs interval immunized post 1 hr first treatment; type: organism-based; conditions: in vivo, dose 10-100 mg/kg
Mus musculus [17] = assay: Immunomodulatory activity in human TMD8 cells xenografted SCID mouse assessed as decrease in IL-10 production in tumor at 100 mg/kg, po; type: functional, organism-based
Mus musculus [18] = assay: Immunomodulatory activity in human TMD8 cells xenografted SCID mouse assessed as increase in levels of uncleaved BCL10 in tumor at 100 mg/kg, po; type: functional, organism-based
[19] = Thermodynamic solubility of the compound at pH 6.8; type: physicochemical; conditions: buffer, read-out: Therm_solubility

IC50 [1]: 140 nM
microsomal CLint [2]: 42 µL/min/mg
IC50 [3]: 180 nM
IC50 [4]: 190 nM
microsomal CLint [5]: 82 µL/min/mg
Papp A→B [6]: 1.47 ×10⁻⁶ cm/s
inhibition [7]: Dose-dependent effect
inhibition [8]: Dose-dependent effect
inhibition [9]: Dose-dependent effect
clearance [10]: 41 mL/min/kg
half-life [11]: 3.2 h
Cmax/dose [12]: 549 nM
Cmax/dose [13]: 46 nM
concentration at 12 h [14]: 120 nM
concentration at 12 h [15]: 690 nM
solubility thermodynamic [19]: 4 µg/mL (≈ 8.51 µM)
SMILES: C[C@H]1COC[C@H](C)N1c1c(NC(=O)Nc2ccnc(C(F)(F)F)c2)cnc2cc(Cl)nn12
IC50 (BMDM): > 10000 nM
Activity (BJAB): inactive
Activity [16]: Non-Toxic
Activity (Mus musculus [17]): Active
Activity (Mus musculus [18]): Active
